According to patent US20080255155A1, “KINASE INHIBITORS AND USES THEREOF” (priority 2006, published 2008):
pIC50: −log10 of the molar value.

How the values were obtained:
DU145 = DU145 scattering inhibition; conditions: Homo sapiens, DU-145; DU145 cells; read-out: Potency in cell-based assays DU145 scattering inhibition
VEGF receptor KDR = target: T1, VEGF receptor KDR (Homo sapiens, UniProt P35968); test: In vitro receptor tyrosine kinase assay, VEGF receptor KDR (DELFIA); type: biochemical; conditions: ATP 0.6 uM, enzyme 5 nM; read-out: Potency in enzyme assays VEGF
T1 construct: made in house; host or cells: Sf9 cells (Spodoptera frugiperda), recombinant baculovirus
T1 sequence (P35968 806-1356): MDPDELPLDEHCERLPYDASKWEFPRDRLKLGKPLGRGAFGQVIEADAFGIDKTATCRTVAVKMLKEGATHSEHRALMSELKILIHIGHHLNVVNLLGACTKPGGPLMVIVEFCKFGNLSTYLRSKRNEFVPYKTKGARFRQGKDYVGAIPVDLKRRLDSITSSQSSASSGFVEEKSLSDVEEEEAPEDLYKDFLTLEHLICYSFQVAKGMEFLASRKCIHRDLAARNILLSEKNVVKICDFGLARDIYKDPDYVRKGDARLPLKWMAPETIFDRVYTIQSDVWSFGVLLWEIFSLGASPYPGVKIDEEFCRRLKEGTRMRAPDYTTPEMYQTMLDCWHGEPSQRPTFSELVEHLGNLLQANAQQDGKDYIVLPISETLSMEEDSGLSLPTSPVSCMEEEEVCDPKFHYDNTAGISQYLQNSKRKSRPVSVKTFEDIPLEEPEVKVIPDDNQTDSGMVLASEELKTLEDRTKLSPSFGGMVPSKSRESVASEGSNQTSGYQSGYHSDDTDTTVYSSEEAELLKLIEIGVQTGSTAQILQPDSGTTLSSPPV
From the text: (§1) These tests measure the ability of compounds to inhibit the enzymatic activity of recombinant human c-Met/HGF receptor and VEGF receptor enzymatic activity.
In the case of VEGF receptor KDR a 1.6-kb cDNA corresponding to the catalytic domain of VEGFR2 or KDR (Genbank accession number AF035121 amino acid 806 to 1356) is cloned into the Pst I site of the pDEST20 Gateway vector (Invitrogen) for the production of a GST-tagged version of that enzyme. This construct is used to generate recombinant baculovirus using the Bac-to-Bac system according to the manufacturer's instructions (Invitrogen).
(§2) The GST-VEGFR2806-1356 protein is expressed in Sf9 cells (Spodoptera frugiperda) upon infection with recombinant baculovirus construct. Briefly, Sf9 cells grown in suspension and maintained in serum-free medium (Sf900 II supplemented with gentamycin) at a cell density of about 2×10^6 cells/ml are infected with the above-mentioned viruses at a multiplicity of infection (MOI) of 0.1 during 72 hours at 27° C. with agitation at 120 rpm on a rotary shaker. Infected cells are harvested by centrifugation at 398 g for 15 min. Cell pellets are frozen at −80° C. until purification is performed.
All steps described in cell extraction and purification are performed at 4° C. Frozen Sf9 cell pellets infected with the GST-VEGFR2806-1356 recombinant baculovirus re thawed and gently resuspended in Buffer A (PBS pH 7.3 supplemented with 1 μg/ml pepstatin, 2 μg/ml Aprotinin and leupeptin, 50 μg/ml PMSF, 50 μg/ml TLCK and 10 μM E64 and 0.5 mM DTT) using 3 ml of buffer per gram of cells. Suspension is Dounce homogenized and 1% Triton X-100 is added to the homogenate after which it is centrifuged at 22500 g, 30 min., 4° C. The supernatant (cell extract) is used as starting material for purification of GST-VEGFR2806-1356.
The supernatant is loaded onto a GST-agarose column (Sigma) equilibrated with PBS pH 7.3. Following a four column volume (CV) wash with PBS pH 7.3+1% Triton X-100 and 4 CV wash with buffer B (50 mM Tris pH 8.0, 20% glycerol and 100 mM NaCl), bound proteins are step eluted with 5 CV of buffer B supplemented with 5 mM DTT and 15 mM glutathion. GST-VEGFR2806-1356 enriched fractions from this chromatography step are pooled based on U.V. trace i.e. fractions with high O.D^-280- Final GST-VEGFR2806-1356 protein preparations concentrations are about 0.7 mg/ml with purity approximating 70%. Purified GST-VEGFR2806-1356 protein stocks are aliquoted and frozen at −80° C. prior to use in enzymatic assay.
Inhibition of c-Met/HGF receptor and VEGFR/KDR is measured in a DELFIA™ assay (Perkin Elmer). The substrate poly(Glu4,Tyr) is immobilized onto black high-binding polystyrene 96-well plates. The coated plates are washed and stored at 4° C. During the assay, enzymes are pre-incubated with inhibitor and Mg-ATP on ice in polypropylene 96-well plates for 4 minutes, and then transferred to the coated plates. The subsequent kinase reaction takes place at 30° C. for 10-30 minutes. ATP concentrations in the assay are 10 uM for C-Met (5× the Km) and 0.6 uM for VEGFR/KDR (2× the Km). Enzyme concentration is 25 nM (C-Met) or 5 nM (VEGFR/KDR). After incubation, the kinase reactions are quenched with EDTA and the plates are washed. Phosphorylated product is detected by incubation with Europium-labeled anti-phosphotyrosine MoAb. After washing the plates, bound MoAb is detected by time-resolved fluorescence in a Gemini SpectraMax reader (Molecular Devices). Compounds are evaluated over a range of concentrations and IC50's (concentration of compounds giving 50% inhibition of enzymatic activity) are determined.

A549 = A549 wound healing inhibition; conditions: Homo sapiens; A549 cells; read-out: Potency in cell-based assays A549 wound healing inhibition
[1] = target: T2, recombinant human c-Met/HGF receptor (Homo sapiens, UniProt P08581); test: In vitro receptor tyrosine kinase assay, c-Met (DELFIA); type: biochemical; conditions: ATP 10 uM, enzyme 25 nM; read-out: Potency in enzyme assays Cmet
T2 construct: His tag; made in house; host or cells: Hi-5 cells (Trichoplusia ni), recombinant baculovirus
T2 sequence (P08581 1078-1337): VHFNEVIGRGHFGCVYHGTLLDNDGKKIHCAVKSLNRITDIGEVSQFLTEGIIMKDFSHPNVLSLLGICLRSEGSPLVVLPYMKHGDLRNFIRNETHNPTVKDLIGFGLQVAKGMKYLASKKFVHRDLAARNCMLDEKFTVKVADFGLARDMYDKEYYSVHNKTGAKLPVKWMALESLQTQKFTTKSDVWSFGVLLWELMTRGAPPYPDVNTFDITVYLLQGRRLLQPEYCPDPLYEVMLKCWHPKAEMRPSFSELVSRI
From the text: as §1
A 1.3-kb cDNA corresponding to the intracellular domain of c-Met or c-Met IC (Genbank accession number NP000236-1 amino acid […]) is cloned into the BamHI/XhoI sites of the pBlueBacHis2A vector (Invitrogen) for the production of a histidine-tagged version of that enzyme. This construct is used to generate recombinant baculovirus using the Bac-N-Blue™ system according to the manufacturer's instructions (Invitrogen).
as §2, with “The c-Met IC” for “The GST-VEGFR2806-1356”, “in Hi-5” for “in Sf9”, “cells (Trichoplusia Ni)” for “cells (Spodoptera frugiperda)”, “Briefly, Hi-5” for “Briefly, Sf9”, “of 0.2” for “of 0.1”
All steps described in cell extraction and purification are performed at 4° C. Frozen Hi-5 cell pellets infected with the C-Met IC recombinant baculovirus are thawed and gently resuspended in Buffer A (20 mM Tris pH 8.0, 10% glycerol, 1 μg/ml pepstatin, 2 μg/ml Aprotinin and leupeptin, 50 μg/ml PMSF, 50 μg/ml TLCK and 10 μM E64, 0.5 mM DTT and 1 mM Levamisole) using 3 ml of buffer per gram of cells. The suspension is Dounce homogenized after which it is centrifuged at 22500 g, 30 min., 4° C. The supernatant (cell extract) is used as starting material for purification of c-Met IC.
The supernatant is loaded onto a QsepharoseFF column (Amersham Biosciences) equilibrated with Buffer B (20 mM Tris pH 8.0, 10% glycerol) supplemented with 0.05M NaCl. Following a ten column volume (CV) wash with equilibration buffer, bound proteins are eluted with a 5 CV salt linear gradient spanning from 0.05 to 1M NaCl in Buffer B. Typically, the conductivity of selected fractions rank between 6.5 and 37 mS/cm. This Qsepharose eluate has an estimated NaCl concentration of 0.33M and is supplemented with a 5M NaCl solution in order to increase NaCl concentration at 0.5M and also with a 5M Imidazole (pH 8.0) solution to achieve a final imidazole concentration of 15 mM. This material is loaded onto a HisTrap affinity column (GE Healthcare) equilibrated with Buffer C (50 mM NaPO4 pH 8.0, 0.5M NaCl, 10% glycerol) supplemented with 15 mM imidazole. After a 10 CV wash with equilibration buffer and an 8 CV wash with buffer C+40 mM imidazole, bound proteins are eluted with an 8 CV linear gradient (15 to 500 mM) of imidazole in buffer C. C-Met IC enriched fractions from this chromatography step are pooled based on SDS-PAGE analysis. This pool of enzyme undergoes buffer exchange using PD-10 column (GE Healthcare) against buffer D (25 mM HEPES pH 7.5, 0.1M NaCl, 10% glycerol and 2 mM β-mercaptoethanol). Final C-Met IC protein preparations concentrations are about 0.5 mg/ml with purity approximating 80%. Purified c-Met IC protein stocks are supplemented with BSA at 1 mg/ml, aliquoted and frozen at −80° C. prior to use in enzymatic assay.
Inhibition of c-Met/HGF receptor and VEGFR/KDR is measured in a DELFIA™ assay (Perkin Elmer). The substrate poly(Glu4,Tyr) is immobilized onto black high-binding polystyrene 96-well plates. The coated plates are washed and stored at 4° C. During the assay, enzymes are pre-incubated with inhibitor and Mg-ATP on ice in polypropylene 96-well plates for 4 minutes, and then transferred to the coated plates. The subsequent kinase reaction takes place at 30° C. for 10-30 minutes. ATP concentrations in the assay are 10 uM for C-Met (5× the Km) and 0.6 uM for VEGFR/KDR (2× the Km). Enzyme concentration is 25 nM (C-Met) or 5 nM (VEGFR/KDR). […]

| Compound | pIC50 (DU145) | pIC50 (VEGF receptor KDR) | pIC50 (A549) | pIC50 [1] |
| --- | --- | --- | --- | --- |
| O=C(CC(Nc1ccc(F)cc1)C(F)(F)F)Nc1ccc(Oc2cc(NC(=O)N3CCCC3)ncn2)c(F)c1 (stereo not drawn) [Compound 9a, N-(6-(2-Fluoro-4-(4,4,4-trifluoro-3-(4-fluorophenylamino)butanamido)phenoxy)pyrimidin-4-yl)pyrrolidine-1-carboxamide] | 5.00 to 5.30 | ≤ 6.00 | 5.30 to 6.00 | ≤ 6.00 |
| O=C(Nc1ccc(Oc2cc(NC(=O)N3CCCC3)ncn2)c(F)c1)C1CCN(c2ccccc2)C1=O (stereo not drawn) [Compound 9b, N-(6-(2-Fluoro-4-(2-oxo-1-phenylpyrrolidine-3-carboxamido)phenoxy)pyrimidin-4-yl)pyrrolidine-1-carboxamide] | 5.00 to 5.30 | ≤ 6.00 | 5.00 to 5.30 | ≤ 6.00 |
| O=C(Nc1cc(Oc2ccc(NC(=O)N3CCN(c4ccccc4)C3=O)cc2F)ncn1)N1CCCC1 [Compound 9c, N-(3-Fluoro-4-(6-(pyrrolidine-1-carboxamido)pyrimidin-4-yloxy)phenyl)-2-oxo-3-phenylimidazolidine-1-carboxamide] | 5.00 to 5.30 | > 6.60 | 5.30 to 6.00 | > 6.60 |
| O=C(CC(Nc1ccc(Oc2cc(NC(=O)N3CCCC3)ncn2)c(F)c1)C(F)(F)F)Nc1ccccc1 (stereo not drawn) [Compound 13, N-(6-(2-Fluoro-4-(1,1,1-trifluoro-4-oxo-4-(phenylamino)butan-2-ylamino)phenoxy)pyrimidin-4-yl)pyrrolidine-1-carboxamide] | 5.00 to 5.30 | > 6.60 | 5.00 to 5.30 | ≤ 6.00 |

Other lines, results leading:

| pIC50 (DU145) | pIC50 (VEGF receptor KDR) | pIC50 (A549) | pIC50 [1] | Compound |
| --- | --- | --- | --- | --- |
| ≤ 6.00 | 6.30 to 6.60 | ≤ 6.00 | > 6.60 | O=C(Nc1cc(Oc2ccc(NC(=O)N3CCN(c4ccccc4)C3=O)cc2F)ccn1)N1CCCC1 [Compound 18a, N-(3-Fluoro-4-(2-(pyrrolidine-1-carboxamido)pyridin-4-yloxy)phenyl)-2-oxo-3-phenylimidazolidine-1-carboxamide] |
| ≤ 6.00 | > 6.60 | ≤ 6.00 | > 6.60 | O=C(Nc1cc(Oc2ccc(NC(=O)N3CCN(c4ccc(F)cc4)C3=O)cc2F)ccn1)N1CCCC1 [Compound 18b, N-(3-fluoro-4-(2-(pyrrolidine-1-carboxamido)pyridin-4-yloxy)phenyl)-3-(4-fluorophenyl)-2-oxoimidazolidine-1-carboxamide] |
| ≤ 6.00 | ≤ 6.00 | 5.30 to 6.00 | 6.00 to 6.30 | CN(C)CCCNC(=O)Nc1cc(Oc2ccc(NC(=O)N3CCN(c4ccccc4)C3=O)cc2F)ccn1 [Compound 18c, N-(4-(2-(3-(3-(dimethylamino)propyl)ureido)pyridin-4-yloxy)-3-fluorophenyl)-2-oxo-3-phenylimidazolidine-1-carboxamide] |
| < 5.00 | ≤ 6.00 | < 5.00 | 6.30 to 6.60 | CN(C)CCOC(=O)Nc1cc(Oc2ccc(NC(=O)N3CCN(c4ccccc4)C3=O)cc2F)ccn1 [Compound 18d, 2-(dimethylamino)ethyl4-(2-fluoro-4-(2-oxo-3-phenylimidazolidine-1-carboxamido)phenoxy)pyridin-2-ylcarbamate] |
| ≤ 6.00 | 6.30 to 6.60 | ≤ 6.00 | > 6.60 | CN(C)[C@@H]1CCN(C(=O)Nc2cc(Oc3ccc(NC(=O)N4CCN(c5ccccc5)C4=O)cc3F)ccn2)C1 [Compound 18e, (R)-N-(4-(2-(3-(dimethylamino)pyrrolidine-1-carboxamido)pyridin-4-yloxy)-3-fluorophenyl)-2-oxo-3-phenylimidazolidine-1-carboxamide] |
| ≤ 6.00 | > 6.60 | 5.30 to 6.00 | > 6.60 | CN(C)[C@H]1CCN(C(=O)Nc2cc(Oc3ccc(NC(=O)N4CCN(c5ccccc5)C4=O)cc3F)ccn2)C1 [Compound 18f, (S)-N-(4-(2-(3-(dimethylamino)pyrrolidine-1-carboxamido)pyridin-4-yloxy)-3-fluorophenyl)-2-oxo-3-phenylimidazolidine-1-carboxamide] |
| – | < 6.00 | – | ≤ 6.00 | O=C(NCCN1CCOCC1)c1cc(Oc2ccc(NC(=O)N3CCN(c4ccc(F)cc4)C3=O)cc2F)ccn1 [Compound 87d, 4-(2-fluoro-4-(3-(4-fluorophenyl)-2-oxoimidazolidine-1-carboxamido)phenoxy)-N-(2-morpholinoethyl)picolinamide] |
